{"source": "ChEMBL document CHEMBL4020826", "about": "(J Med Chem, 2018)", "key": {"[1]": {"assay": "Tmax in Sprague-Dawley rat at 3 mg/kg, sc measured over 8 hrs by LC-MS/MS analysis", "type": "ADME, organism-based", "details": "in vivo"}, "[2]": {"assay": "Drug metabolism in rat liver microsomes at 4 uM", "type": "ADME, microsome", "details": "read-out: Drug metabolism"}, "[3]": {"target": "Metabotropic glutamate receptor 7 (Homo sapiens, UniProt Q14831)", "assay": "Antagonist activity at recombinant human mGlu7 receptor expressed in hamster AV12 cells co-expressing rat EAAT1/Galpha15 assessed as inhibition of glutamate induced increase in Ca2+ flux after 2.5 mins by Fluo-3 AM dye-based FLIPR assay", "type": "functional, cell-based"}, "[4]": {"assay": "Volume of distribution at steady state in Sprague-Dawley rat at 1 mg/kg, iv measured over 8 hrs by LC-MS/MS analysis", "type": "ADME, organism-based", "details": "in vivo, read-out: Vdss"}, "[5]": {"assay": "Plasma concentration in Sprague-Dawley rat at 0.5 mg/kg/day, sc administered via infusion measured after 24 hrs post dose by LC-MS/MS analysis", "type": "ADME, organism-based"}, "[6]": {"assay": "Drug level in Sprague-Dawley rat CSF at 15 mg/kg/day, sc administered via infusion measured after 72 hrs post dose by LC-MS/MS analysis", "type": "ADME, organism-based, Cerebrospinal fluid", "details": "read-out: Drug uptake"}, "[7]": {"assay": "Fraction unbound in rat brain", "type": "ADME, tissue-based"}, "[8]": {"assay": "Half life in Sprague-Dawley rat at 1 mg/kg, iv measured over 8 hrs by LC-MS/MS analysis", "type": "ADME, organism-based", "details": "in vivo"}, "[9]": {"assay": "Drug metabolism in human liver microsomes at 4 uM", "type": "ADME, microsome", "details": "read-out: Drug metabolism"}, "[10]": {"assay": "Plasma concentration in Sprague-Dawley rat at 10 mg/kg, sc administered as single dose measured after 1 hr post dose by LC-MS/MS analysis", "type": "ADME, organism-based"}, "[11]": {"assay": "Drug level in Sprague-Dawley rat CSF at 0.3 mg/kg, sc administered as single dose measured after 1 hr post dose by LC-MS/MS analysis", "type": "ADME, organism-based, Cerebrospinal fluid", "details": "read-out: Drug uptake"}, "[12]": {"assay": "Cmax in Sprague-Dawley rat at 3 mg/kg, sc measured over 8 hrs by LC-MS/MS analysis", "type": "ADME, organism-based", "design": "dose 3 mg/kg, route subcutaneous", "details": "in vivo"}, "[13]": {"assay": "Drug level in Sprague-Dawley rat CSF at 10 mg/kg, sc administered as single dose measured after 1 hr post dose by LC-MS/MS analysis", "type": "ADME, organism-based, Cerebrospinal fluid", "details": "read-out: Drug uptake"}, "[14]": {"assay": "Plasma concentration in Sprague-Dawley rat at 5 mg/kg/day, sc administered via infusion measured after 12 hrs post dose by LC-MS/MS analysis", "type": "ADME, organism-based"}, "[15]": {"assay": "Plasma concentration in Sprague-Dawley rat at 15 mg/kg/day, sc administered via infusion measured after 48 hrs post dose by LC-MS/MS analysis", "type": "ADME, organism-based"}, "[16]": {"assay": "Aqueous solubility of the compound at pH 7.4", "type": "physicochemical", "details": "buffer"}, "[17]": {"assay": "Plasma concentration in Sprague-Dawley rat at 5 mg/kg/day, sc administered via infusion measured after 48 hrs post dose by LC-MS/MS analysis", "type": "ADME, organism-based"}, "[18]": {"assay": "Plasma concentration in Sprague-Dawley rat at 3 mg/kg, sc administered as single dose measured after 1 hr post dose by LC-MS/MS analysis", "type": "ADME, organism-based"}, "[19]": {"target": "Metabotropic glutamate receptor 2 (Homo sapiens, UniProt Q14416)", "assay": "Agonist activity at human mGlu2 receptor expressed in HEK cells assessed as inhibition of forskolin-stimulated cAMP formation after 20 mins by HTRF assay", "type": "functional, cell-based"}, "[20]": {"target": "Group II metabotropic glutamate receptor (mGlu2/mGlu3) (Rattus norvegicus) (UniProt P31421+P31422)", "sequence (P31421 whole entry, looked up)": "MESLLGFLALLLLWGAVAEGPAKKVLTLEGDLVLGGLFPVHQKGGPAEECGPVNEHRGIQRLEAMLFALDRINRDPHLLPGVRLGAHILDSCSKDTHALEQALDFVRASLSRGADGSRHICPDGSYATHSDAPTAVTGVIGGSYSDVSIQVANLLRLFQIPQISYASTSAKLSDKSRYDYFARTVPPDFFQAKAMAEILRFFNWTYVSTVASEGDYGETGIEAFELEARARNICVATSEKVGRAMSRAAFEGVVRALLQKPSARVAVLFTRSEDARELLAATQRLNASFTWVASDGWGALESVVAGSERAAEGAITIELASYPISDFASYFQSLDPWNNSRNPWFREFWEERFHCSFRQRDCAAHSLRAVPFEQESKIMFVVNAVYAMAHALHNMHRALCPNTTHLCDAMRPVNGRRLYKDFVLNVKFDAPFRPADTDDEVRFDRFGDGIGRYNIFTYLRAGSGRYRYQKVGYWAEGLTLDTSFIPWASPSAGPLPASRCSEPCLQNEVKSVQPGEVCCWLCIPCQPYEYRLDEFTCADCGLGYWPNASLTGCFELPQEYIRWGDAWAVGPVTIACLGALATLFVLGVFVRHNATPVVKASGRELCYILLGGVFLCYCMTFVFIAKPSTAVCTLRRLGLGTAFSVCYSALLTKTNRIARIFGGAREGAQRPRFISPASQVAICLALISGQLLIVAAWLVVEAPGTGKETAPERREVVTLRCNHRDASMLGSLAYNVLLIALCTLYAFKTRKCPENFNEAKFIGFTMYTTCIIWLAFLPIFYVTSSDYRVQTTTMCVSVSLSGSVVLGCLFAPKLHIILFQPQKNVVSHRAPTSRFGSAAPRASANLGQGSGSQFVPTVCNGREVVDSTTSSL", "sequence (P31422 whole entry, looked up)": "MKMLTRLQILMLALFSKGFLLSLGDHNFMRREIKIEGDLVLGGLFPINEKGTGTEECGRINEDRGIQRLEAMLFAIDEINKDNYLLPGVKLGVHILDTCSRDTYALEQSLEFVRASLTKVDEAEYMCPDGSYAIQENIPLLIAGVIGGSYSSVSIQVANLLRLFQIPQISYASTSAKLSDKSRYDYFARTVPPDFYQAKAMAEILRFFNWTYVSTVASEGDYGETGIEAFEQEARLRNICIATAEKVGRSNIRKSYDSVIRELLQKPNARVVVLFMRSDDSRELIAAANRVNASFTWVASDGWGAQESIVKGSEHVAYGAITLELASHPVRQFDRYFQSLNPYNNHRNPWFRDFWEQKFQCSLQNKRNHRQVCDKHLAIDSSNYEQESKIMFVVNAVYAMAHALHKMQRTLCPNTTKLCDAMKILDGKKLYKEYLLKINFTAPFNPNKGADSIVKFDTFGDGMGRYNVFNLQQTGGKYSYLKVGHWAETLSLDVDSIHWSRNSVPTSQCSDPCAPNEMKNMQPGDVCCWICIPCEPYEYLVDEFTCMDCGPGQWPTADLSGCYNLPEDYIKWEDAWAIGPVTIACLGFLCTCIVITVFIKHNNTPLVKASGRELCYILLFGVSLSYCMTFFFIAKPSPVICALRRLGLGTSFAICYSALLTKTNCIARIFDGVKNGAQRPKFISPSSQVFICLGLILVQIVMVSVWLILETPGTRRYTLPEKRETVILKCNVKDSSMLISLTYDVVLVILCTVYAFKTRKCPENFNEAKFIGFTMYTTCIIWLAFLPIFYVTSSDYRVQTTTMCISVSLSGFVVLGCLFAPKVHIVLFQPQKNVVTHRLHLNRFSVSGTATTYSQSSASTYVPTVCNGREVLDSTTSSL", "details": "Sprague-Dawley", "description": "Agonist activity at mGlu2/3 receptor in Sprague-Dawley rat forebrain assessed as inhibition of spontaneous Ca2+ oscillations in cortical neurons after 300 secs by FLIPR assay"}, "[21]": {"assay": "Plasma concentration in Sprague-Dawley rat at 1.5 mg/kg/day, sc administered via infusion measured after 12 hrs post dose by LC-MS/MS analysis", "type": "ADME, organism-based"}, "[22]": {"assay": "Drug metabolism in dog liver microsomes at 4 uM", "type": "ADME, Canis lupus familiaris, microsome", "details": "read-out: Drug metabolism"}, "[23]": {"assay": "Cmax in Sprague-Dawley rat at 1 mg/kg, iv measured over 8 hrs by LC-MS/MS analysis", "type": "ADME, organism-based", "design": "dose 1 mg/kg, route intravenous", "details": "in vivo"}, "[24]": {"assay": "Plasma concentration in Sprague-Dawley rat at 5 mg/kg/day, sc administered via infusion measured after 24 hrs post dose by LC-MS/MS analysis", "type": "ADME, organism-based"}, "[25]": {"target": "Metabotropic glutamate receptor 6 (Homo sapiens, UniProt O15303)", "sequence (O15303 whole entry)": "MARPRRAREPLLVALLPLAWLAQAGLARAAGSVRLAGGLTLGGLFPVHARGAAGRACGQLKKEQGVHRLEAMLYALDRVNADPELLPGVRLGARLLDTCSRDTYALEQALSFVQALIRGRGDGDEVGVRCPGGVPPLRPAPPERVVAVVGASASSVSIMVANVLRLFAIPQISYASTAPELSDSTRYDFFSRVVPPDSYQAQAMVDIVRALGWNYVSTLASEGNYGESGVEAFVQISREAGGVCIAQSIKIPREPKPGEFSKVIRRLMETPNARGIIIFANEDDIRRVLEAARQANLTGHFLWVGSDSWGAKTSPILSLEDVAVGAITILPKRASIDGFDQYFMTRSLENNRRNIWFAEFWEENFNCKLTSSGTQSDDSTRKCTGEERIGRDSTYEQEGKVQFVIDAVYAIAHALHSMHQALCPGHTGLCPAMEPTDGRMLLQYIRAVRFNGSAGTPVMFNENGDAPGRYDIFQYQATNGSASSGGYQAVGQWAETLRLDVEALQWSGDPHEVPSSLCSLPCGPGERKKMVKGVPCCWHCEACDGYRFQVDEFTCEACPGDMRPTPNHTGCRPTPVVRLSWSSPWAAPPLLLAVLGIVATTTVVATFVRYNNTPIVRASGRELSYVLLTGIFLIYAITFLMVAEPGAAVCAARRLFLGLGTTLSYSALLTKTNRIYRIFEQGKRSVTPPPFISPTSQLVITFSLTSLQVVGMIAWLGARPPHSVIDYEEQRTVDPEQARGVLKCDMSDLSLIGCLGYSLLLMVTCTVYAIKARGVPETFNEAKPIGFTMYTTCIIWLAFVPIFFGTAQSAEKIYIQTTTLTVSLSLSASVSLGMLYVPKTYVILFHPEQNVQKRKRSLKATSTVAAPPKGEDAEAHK", "assay": "Agonist activity at human mGlu6 receptor expressed in hamster AV12 cells co-expressing rat EAAT1 assessed as inhibition of forskolin-stimulated cAMP formation after 20 mins by HTRF assay", "type": "functional, cell-based"}, "[26]": {"assay": "Plasma concentration in Sprague-Dawley rat at 0.5 mg/kg/day, sc administered via infusion measured after 72 hrs post dose by LC-MS/MS analysis", "type": "ADME, organism-based"}, "[27]": {"assay": "Plasma concentration in Sprague-Dawley rat at 0.3 mg/kg, sc administered as single dose measured after 1 hr post dose by LC-MS/MS analysis", "type": "ADME, organism-based"}, "[28]": {"target": "Metabotropic glutamate receptor 5 (Homo sapiens, UniProt P41594)", "assay": "Agonist activity at recombinant human mGlu5 receptor expressed in hamster AV12 cells co-expressing rat EAAT1/Galpha15 assessed as induction of increase in Ca2+ flux after 2.5 mins by Fluo-3 AM dye-based FLIPR assay", "type": "functional, cell-based"}, "[29]": {"assay": "Plasma concentration in Sprague-Dawley rat at 0.1 mg/kg, sc administered as single dose measured after 1 hr post dose by LC-MS/MS analysis", "type": "ADME, organism-based"}, "[30]": {"assay": "Bioavailability in Sprague-Dawley rat at 3 mg/kg, sc measured over 8 hrs by LC-MS/MS analysis", "type": "ADME, organism-based", "details": "in vivo"}, "[31]": {"target": "T1, Metabotropic glutamate receptor 1 (Homo sapiens, UniProt Q13255)", "T1 sequence (Q13255 whole entry)": "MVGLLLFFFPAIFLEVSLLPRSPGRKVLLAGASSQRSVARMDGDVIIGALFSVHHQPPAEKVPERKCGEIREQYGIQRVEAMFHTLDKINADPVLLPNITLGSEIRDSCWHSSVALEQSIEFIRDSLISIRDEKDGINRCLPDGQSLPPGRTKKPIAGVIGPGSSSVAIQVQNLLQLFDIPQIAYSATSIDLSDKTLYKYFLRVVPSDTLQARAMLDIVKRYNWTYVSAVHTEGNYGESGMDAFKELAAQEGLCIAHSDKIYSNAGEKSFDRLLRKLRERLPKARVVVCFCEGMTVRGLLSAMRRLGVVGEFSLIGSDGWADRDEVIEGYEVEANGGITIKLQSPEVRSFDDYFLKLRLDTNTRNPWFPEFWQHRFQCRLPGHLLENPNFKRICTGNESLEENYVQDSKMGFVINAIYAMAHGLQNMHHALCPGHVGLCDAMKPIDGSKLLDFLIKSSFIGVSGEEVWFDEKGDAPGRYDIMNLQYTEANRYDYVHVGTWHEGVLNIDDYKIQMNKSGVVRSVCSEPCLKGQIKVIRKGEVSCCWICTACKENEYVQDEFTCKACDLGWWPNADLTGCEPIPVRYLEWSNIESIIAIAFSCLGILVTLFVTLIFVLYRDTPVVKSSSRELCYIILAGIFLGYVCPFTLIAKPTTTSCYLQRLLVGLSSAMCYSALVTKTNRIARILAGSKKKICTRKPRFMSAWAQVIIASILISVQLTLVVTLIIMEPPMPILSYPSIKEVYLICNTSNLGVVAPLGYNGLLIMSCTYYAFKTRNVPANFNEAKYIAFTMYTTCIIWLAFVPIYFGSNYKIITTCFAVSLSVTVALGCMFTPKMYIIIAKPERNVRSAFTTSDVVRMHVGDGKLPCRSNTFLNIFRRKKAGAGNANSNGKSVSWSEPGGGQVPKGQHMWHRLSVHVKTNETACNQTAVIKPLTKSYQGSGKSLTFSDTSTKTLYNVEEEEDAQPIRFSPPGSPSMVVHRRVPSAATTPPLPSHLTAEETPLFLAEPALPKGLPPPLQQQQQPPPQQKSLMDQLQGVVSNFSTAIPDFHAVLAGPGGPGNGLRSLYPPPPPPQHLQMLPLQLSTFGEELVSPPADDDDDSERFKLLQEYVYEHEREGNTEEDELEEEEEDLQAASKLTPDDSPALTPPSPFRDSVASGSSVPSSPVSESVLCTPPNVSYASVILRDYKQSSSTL", "assay": "Antagonist activity at recombinant human mGlu1 receptor expressed in hamster AV12 cells co-expressing rat EAAT1/Galpha15 assessed as inhibition of glutamate induced increase in Ca2+ flux after 2.5 mins by Fluo-3 AM dye-based FLIPR assay", "type": "functional, cell-based"}, "[32]": {"target": "T1, Metabotropic glutamate receptor 1", "assay": "Agonist activity at recombinant human mGlu1 receptor expressed in hamster AV12 cells co-expressing rat EAAT1/Galpha15 assessed as induction of increase in Ca2+ flux after 2.5 mins by Fluo-3 AM dye-based FLIPR assay", "type": "functional, cell-based"}, "[33]": {"target": "Group II metabotropic glutamate receptor (mGlu2/mGlu3) (Rattus norvegicus, UniProt P31421+P31422)", "assay": "Displacement of [3H]-LY459477 from mGlu2/3 receptor in Sprague-Dawley rat forebrain primary cortical membranes after 90 mins by liquid scintillation counting"}, "[34]": {"target": "Metabotropic glutamate receptor 8 (Homo sapiens, UniProt O00222)", "sequence (O00222 whole entry)": "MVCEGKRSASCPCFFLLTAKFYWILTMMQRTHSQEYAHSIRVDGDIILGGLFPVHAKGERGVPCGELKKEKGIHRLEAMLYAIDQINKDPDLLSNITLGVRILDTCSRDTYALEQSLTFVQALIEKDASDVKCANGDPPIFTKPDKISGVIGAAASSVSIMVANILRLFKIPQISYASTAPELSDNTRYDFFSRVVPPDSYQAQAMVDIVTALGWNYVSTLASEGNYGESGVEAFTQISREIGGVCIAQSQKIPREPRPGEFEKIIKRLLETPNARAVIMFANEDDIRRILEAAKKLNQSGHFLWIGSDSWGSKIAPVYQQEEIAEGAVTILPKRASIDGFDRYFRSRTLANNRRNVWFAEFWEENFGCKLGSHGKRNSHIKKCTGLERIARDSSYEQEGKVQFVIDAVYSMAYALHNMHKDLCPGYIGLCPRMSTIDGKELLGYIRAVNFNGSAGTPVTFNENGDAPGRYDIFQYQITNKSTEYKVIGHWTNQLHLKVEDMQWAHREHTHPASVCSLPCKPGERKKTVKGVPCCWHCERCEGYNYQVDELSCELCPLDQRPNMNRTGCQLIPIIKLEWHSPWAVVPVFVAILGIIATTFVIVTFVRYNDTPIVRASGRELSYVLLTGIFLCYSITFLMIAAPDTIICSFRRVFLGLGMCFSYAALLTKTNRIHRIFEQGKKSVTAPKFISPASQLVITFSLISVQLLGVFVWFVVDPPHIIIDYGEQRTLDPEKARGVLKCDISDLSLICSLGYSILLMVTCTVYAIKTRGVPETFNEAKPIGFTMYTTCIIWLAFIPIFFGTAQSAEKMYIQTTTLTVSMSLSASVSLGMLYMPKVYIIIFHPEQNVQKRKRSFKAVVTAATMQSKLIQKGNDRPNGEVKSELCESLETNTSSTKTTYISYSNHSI", "assay": "Agonist activity at recombinant human mGlu8 receptor expressed in hamster AV12 cells co-expressing rat EAAT1/Galpha15 assessed as induction of increase in Ca2+ flux after 2.5 mins by Fluo-3 AM dye-based FLIPR assay", "type": "functional, cell-based"}, "[35]": {"species": "Rattus norvegicus", "assay": "Drug metabolism in Sprague-Dawley rat assessed as (1S,2S,4S,5R,6S)-di-tert-butyl 4-amino-2-(tert-butoxycarbonylamino)bicyclo[3.1.0]hexane-2,6-dicarboxylate formation measured over 24 hrs", "type": "ADME"}, "[36]": {"target": "Metabotropic glutamate receptor 4 (Homo sapiens, UniProt Q14833)", "assay": "Agonist activity at recombinant human mGlu4 receptor expressed in hamster AV12 cells co-expressing rat EAAT1/Galpha15 assessed as induction of increase in Ca2+ flux after 2.5 mins by Fluo-3 AM dye-based FLIPR assay", "type": "functional, cell-based"}, "[37]": {"assay": "Plasma concentration in Sprague-Dawley rat at 1.5 mg/kg/day, sc administered via infusion measured after 24 hrs post dose by LC-MS/MS analysis", "type": "ADME, organism-based"}, "[38]": {"assay": "Drug metabolism in mouse liver microsomes at 4 uM", "type": "ADME, microsome", "details": "read-out: Drug metabolism"}}, "data": [{"compound": "COc1cccc(C(=O)N[C@H]2C[C@@](N)(C(=O)O)[C@@H]3[C@@H](C(=O)O)[C@@H]32)c1", "values": [{"measurement": "Tmax", "setting": "[1]", "result": 0.44, "unit": "h"}, {"measurement": "metabolised at 4 µM", "setting": "[2]", "result": 23, "unit": "%"}, {"measurement": "IC50", "setting": "[3]", "result": "> 12.5", "unit": "µM"}, {"measurement": "Vd", "setting": "[4]", "result": 1.17, "unit": "L/kg"}, {"measurement": "concentration at 24 h", "setting": "[5]", "result": 124, "unit": "nM"}, {"measurement": "concentration at 72 h", "setting": "[6]", "result": 86.7, "unit": "nM"}, {"measurement": "fraction unbound", "setting": "[7]", "result": 1}, {"measurement": "half-life", "setting": "[8]", "result": 3.1, "unit": "h"}, {"measurement": "metabolised at 4 µM", "setting": "[9]", "result": 12.3, "unit": "%"}, {"measurement": "concentration at 1 h", "setting": "[10]", "result": 25900, "unit": "nM"}, {"measurement": "concentration at 1 h", "setting": "[11]", "result": 6.91, "unit": "nM"}, {"measurement": "Cmax", "setting": "[12]", "result": 6780, "unit": "nM"}, {"measurement": "concentration at 1 h", "setting": "[13]", "result": 249, "unit": "nM"}, {"measurement": "concentration at 12 h", "setting": "[14]", "result": 1260, "unit": "nM"}, {"measurement": "concentration at 48 h", "setting": "[15]", "result": 2130, "unit": "nM"}, {"measurement": "solubility", "setting": "[16]", "result": "> 100", "unit": "µM"}, {"measurement": "concentration at 48 h", "setting": "[17]", "result": 871, "unit": "nM"}, {"measurement": "concentration at 1 h", "setting": "[18]", "result": 7180, "unit": "nM"}, {"measurement": "EC50", "setting": "[19]", "result": 0.0475, "unit": "µM"}, {"measurement": "EC50H", "setting": "[20]", "result": 0.00044, "unit": "µM"}, {"measurement": "EC50L", "setting": "[20]", "result": 0.0436, "unit": "µM"}, {"measurement": "concentration at 12 h", "setting": "[21]", "result": 389, "unit": "nM"}, {"measurement": "metabolised at 4 µM", "setting": "[22]", "result": 28.9, "unit": "%"}, {"measurement": "Cmax", "setting": "[23]", "result": 6390, "unit": "nM"}, {"measurement": "concentration at 24 h", "setting": "[24]", "result": 1300, "unit": "nM"}, {"measurement": "EC50", "setting": "[25]", "result": 1.95, "unit": "µM"}, {"measurement": "concentration at 72 h", "setting": "[26]", "result": 91.2, "unit": "nM"}, {"measurement": "concentration at 1 h", "setting": "[27]", "result": 771, "unit": "nM"}, {"measurement": "EC50", "setting": "[28]", "result": "> 25", "unit": "µM"}, {"measurement": "concentration at 1 h", "setting": "[29]", "result": 286, "unit": "nM"}, {"measurement": "bioavailability", "setting": "[30]", "result": 121, "unit": "%"}, {"measurement": "IC50", "setting": "[31]", "result": "> 12.5", "unit": "µM"}, {"measurement": "EC50", "setting": "[32]", "result": "> 25", "unit": "µM"}, {"measurement": "Ki", "setting": "[33]", "result": 0.106, "unit": "µM"}, {"measurement": "EC50", "setting": "[34]", "result": "> 25", "unit": "µM"}, {"measurement": "Drug metabolism", "setting": "[35]", "result": "< 2.5", "unit": "nM"}, {"measurement": "EC50", "setting": "[36]", "result": 11.8, "unit": "µM"}, {"measurement": "concentration at 24 h", "setting": "[37]", "result": 403, "unit": "nM"}, {"measurement": "metabolised at 4 µM", "setting": "[38]", "result": 11.5, "unit": "%"}]}]}
